Reference: patent publication US20250129070A1, “BIFUNCTIONAL ANDROGEN RECEPTOR COMPOUNDS” (priority 2023, published 2025)

What was measured:
Type in all cases: cell-based
VCaP cells = test: VCaP growth inhibition assay; details: 30 pM R1881, 9 days, CTG
Procedure, shortened: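 VCaP cells in phenol red-free DMEM/5% CSS, pre-incubated 72 h, then stimulated with R1881 (final 30 pM) and treated with 1:5 serial dilutions (final 100 nM to 10 fM) for 9 days at 37 °C. Viability by CellTiter-Glo luminescence; IC50 from 4-parameter logistic fit of RLU vs concentration.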

AR / CBP ternary complex = test: Ternary complex formation assay (sandwich ELISA, AR capture / CBP detection) in VCaP cell lysates; details: 1.5 hours treatment, sandwich ELISA (AR capture, CBP or p300 detection)
Procedure, shortened: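 VCaP cells (50K/well, 5% charcoal-stripped FBS, ≥3 days) treated with bifunctional compound for 1.5 h, then lysed 30 min at 4 °C. AR captured on anti-AR (AR 441) plates; bound CBP or p300 detected by rabbit mAb plus HRP secondary. QuantaRed chemifluorescence read at ex 570/em 585, immediately and at 5 and 15 min.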

HEK-293 cells = test: HEK-293 growth inhibition assay; details: 3 days, CTG
Method: Cluster plates are returned to the incubator (37*C/5% CO2) for 24 hours prior to treatment. […] Cluster plates are returned to the incubator for 3 days.
After the 3-day treatment period, 100 uL media was removed from each well by aspiration and 100 uL room temperature CTG reagent (Promega Cat #G7573) is added back to each well. The cluster plates are placed on a shaker and incubated at room temperature for 20 minutes. Following this shaking/incubation, cluster plates are read on a luminometer (BMG ClarioStar). IC50 values are obtained by graphing the RLU data vs. compound concentration with nonlinear regression 4-parameter logistic curves (GraphPad Prism).

IC50 (VCaP cells) [nM]	EC50 (AR / CBP ternary complex) [nM]	Structure (SMILES)	IC50 (HEK-293 cells) [µM]
0.1 to 1	< 1	CC(=O)N1CCc2c(c(N3CCCc4cc(-c5cnn(C)c5)c(C(F)F)cc43)nn2C2CCN(C(=O)CN3CCN(c4ncc(C(=O)NC5C(C)(C)C(Oc6ccc(C#N)c(Cl)c6)C5(C)C)cn4)CC3)C2)C1 (stereo not shown) [Compound 64, 2-[4-[2-[3-[5-acetyl-3-[7-(difluoromethyl)-6-(1-methylpyrazol-4-yl)-3,4-dihydro-2H-quinolin-1-yl]-6,7-dihydro-4H-pyrazolo[4,3-c]pyridin-1-yl]pyrrolidin-1-yl]-2-oxo-ethyl]piperazin-1-yl]-N-[3-(3-chloro-4-cyano-phenoxy)-2,2,4,4-tetramethyl-cyclobutyl]pyrimidine-5-carboxamide]	> 10
≤ 0.1	< 1	COc1cc(OC2C(C)(C)C(NC(=O)c3cnc(N4CCC(CN5CCC(n6nc(N7CCCc8cc(-c9cnn(C)c9)c(C(F)F)cc87)c7c6CCN(C(C)=O)C7)CC5)C(C)(C)C4)nc3)C2(C)C)ccc1C#N (stereo not shown) [Compound 360, 2-[4-[[4-[5-acetyl-3-[7-(difluoromethyl)-6-(1-methylpyrazol-4-yl)-3,4-dihydro-2H-quinolin-1-yl]-6,7-dihydro-4H-pyrazolo[4,3-c]pyridin-1-yl]-1-piperidyl]methyl]-3,3-dimethyl-1-piperidyl]-N-[3-(4-cyano-3-methoxy-phenoxy)-2,2,4,4-tetramethyl-cyclobutyl]pyrimidine-5-carboxamide]	> 1
0.1 to 1	< 1	CNC(=O)N1CCc2c(c(N3CCCc4cc(-c5cnn(C)c5)c(C(F)F)cc43)nn2C2CCN(CCOc3ncc(C(=O)NC4C(C)(C)C(Oc5ccc(C#N)c(Cl)c5)C4(C)C)cn3)CC2)C1 (stereo not shown) [Compound 87, 1-[1-[2-[5-[[3-(3-chloro-4-cyano-phenoxy)-2,2,4,4-tetramethyl-cyclobutyl]carbamoyl]pyrimidin-2-yl]oxyethyl]-4-piperidyl]-3-[7-(difluoromethyl)-6-(1-methylpyrazol-4-yl)-3,4-dihydro-2H-quinolin-1-yl]-N-methyl-6,7-dihydro-4H-pyrazolo[4,3-c]pyridine-5-carboxamide]	> 10
0.1 to 1	< 1	CC(=O)N1CCc2c(c(Nc3ccc(-c4cnn(C)c4)cc3F)nn2C2CCN(C(=O)CN3CCN(c4ncc(C(=O)NC5C(C)(C)C(Oc6ccc(C#N)c(Cl)c6)C5(C)C)cn4)CC3)CC2)C1 (stereo not shown) [Compound 66, 2-[4-[2-[4-[5-acetyl-3-[2-fluoro-4-(1-methylpyrazol-4-yl)anilino]-6,7-dihydro-4H-pyrazolo[4,3-c]pyridin-1-yl]-1-piperidyl]-2-oxo-ethyl]piperazin-1-yl]-N-[3-(3-chloro-4-cyano-phenoxy)-2,2,4,4-tetramethyl-cyclobutyl]pyrimidine-5-carboxamide]	> 10
0.1 to 1	< 1	CC(=O)N1CCc2c(c(-c3cccc4cc(-c5ccc(C(=O)NCCCc6ncc(C(=O)NC7C(C)(C)C(Oc8ccc(C#N)c(Cl)c8)C7(C)C)cn6)nc5)ncc34)nn2C2CCOCC2)C1 (stereo not shown) [Compound 77, 2-[3-[[5-[8-(5-acetyl-1-tetrahydropyran-4-yl-6,7-dihydro-4H-pyrazolo[4,3-c]pyridin-3-yl)-3-isoquinolyl]pyridine-2-carbonyl]amino]propyl]-N-[3-(3-chloro-4-cyano-phenoxy)-2,2,4,4-tetramethyl-cyclobutyl]pyrimidine-5-carboxamide]	> 10
≤ 0.1	–	CC(=O)N1CCc2c(c(-c3cccc4cc(-c5ccc(C(=O)NCC6CCN(c7ncc(C(=O)NC8C(C)(C)C(Oc9ccc(C#N)c(Cl)c9)C8(C)C)cn7)CC6)nc5)ncc34)nn2C2CCOCC2)C1 (stereo not shown) [Compound 110, 2-[4-[[[5-[8-(5-acetyl-1-tetrahydropyran-4-yl-6,7-dihydro-4H-pyrazolo[4,3-c]pyridin-3-yl)-3-isoquinolyl]pyridine-2-carbonyl]amino]methyl]-1-piperidyl]-N-[3-(3-chloro-4-cyano-phenoxy)-2,2,4,4-tetramethyl-cyclobutyl]pyrimidine-5-carboxamide]	> 10
1 to 100	< 1	CN1C(=O)CCc2cc(N3CCCc4cc(-c5ccc(CCC6CCN(c7ncc(C(=O)NC8C(C)(C)C(Oc9ccc(C#N)c(Cl)c9)C8(C)C)cn7)CC6)nc5)c(C(F)F)cc43)ccc21 (stereo not shown) [Compound 239, N-[3-(3-chloro-4-cyano-phenoxy)-2,2,4,4-tetramethyl-cyclobutyl]-2-[4-[2-[5-[7-(difluoromethyl)-1-(1-methyl-2-oxo-3,4-dihydroquinolin-6-yl)-3,4-dihydro-2H-quinolin-6-yl]-2-pyridyl]ethyl]-1-piperidyl]pyrimidine-5-carboxamide]	–
0.1 to 1	< 1	COc1cc(OC2C(C)(C)C(NC(=O)c3ccc(C#CC4CCC(N5CCC(n6nc(N7CCCc8cc(-c9cnn(C)c9)c(C(F)F)cc87)c7c6CCN(C(C)=O)C7)CC5)CC4)cc3)C2(C)C)ccc1C#N (stereo not shown) [Compound 292, 4-[2-[4-[4-[5-acetyl-3-[7-(difluoromethyl)-6-(1-methylpyrazol-4-yl)-3,4-dihydro-2H-quinolin-1-yl]-6,7-dihydro-4H-pyrazolo[4,3-c]pyridin-1-yl]-1-piperidyl]cyclohexyl]ethynyl]-N-[3-(4-cyano-3-methoxy-phenoxy)-2,2,4,4-tetramethyl-cyclobutyl]benzamide]	–
≤ 0.1	< 1	COc1cc(OC2C(C)(C)C(NC(=O)c3cnc(N4CCC(CN5CCC(n6nc(N7CCCc8cc(-c9cnn(C)c9)c(C(F)F)cc87)c7c6CCN(C(C)=O)C7)CC5)C5(CC5)C4)nc3)C2(C)C)ccc1C#N (stereo not shown) [Compound 362, 2-[8-[[4-[5-acetyl-3-[7-(difluoromethyl)-6-(1-methylpyrazol-4-yl)-3,4-dihydro-2H-quinolin-1-yl]-6,7-dihydro-4H-pyrazolo[4,3-c]pyridin-1-yl]-1-piperidyl]methyl]-5-azaspiro[2.5]octan-5-yl]-N-[3-(4-cyano-3-methoxy-phenoxy)-2,2,4,4-tetramethyl-cyclobutyl]pyrimidine-5-carboxamide]	–
≤ 0.1	< 1	CC(=O)N1CCc2c(c(N3CCCc4cc(-c5cnn(C)c5)c(C(F)F)cc43)nn2C2CCN(C(C)CC3CCN(c4ncc(C(=O)NC5C(C)(C)C(Oc6ccc(C#N)c(Cl)c6)C5(C)C)cn4)CC3)CC2)C1 (stereo not shown) [Compound 171, 2-[4-[2-[4-[5-acetyl-3-[7-(difluoromethyl)-6-(1-methylpyrazol-4-yl)-3,4-dihydro-2H-quinolin-1-yl]-6,7-dihydro-4H-pyrazolo[4,3-c]pyridin-1-yl]-1-piperidyl]propyl]-1-piperidyl]-N-[3-(3-chloro-4-cyano-phenoxy)-2,2,4,4-tetramethyl-cyclobutyl]pyrimidine-5-carboxamide]	–

Structure (SMILES)	IC50 (VCaP cells) [nM]	EC50 (AR / CBP ternary complex) [nM]	IC50 (HEK-293 cells) [µM]
CNC(=O)N1CCc2c(c(N3CCCc4cc(-c5cnn(C)c5)c(C(F)F)cc43)nn2C2CCN(C(=O)CN3CCN(c4ccc(C(=O)NC5C(C)(C)C(Oc6ccc(C#N)c(Cl)c6)C5(C)C)cc4)CC3)CC2)C1 (stereo not shown) [Compound 41, 1-[1-[2-[4-[4-[[3-(3-chloro-4-cyano-phenoxy)-2,2,4,4-tetramethyl-cyclobutyl]carbamoyl]phenyl]piperazin-1-yl]acetyl]-4-piperidyl]-3-[7-(difluoromethyl)-6-(1-methylpyrazol-4-yl)-3,4-dihydro-2H-quinolin-1-yl]-N-methyl-6,7-dihydro-4H-pyrazolo[4,3-c]pyridine-5-carboxamide]	0.1 to 1	< 1	> 10
CNC(=O)N1CCc2c(c(N3CCCc4cc(-c5cnn(C)c5)c(C(F)F)cc43)nn2C2CCN(C(=O)CC3CCN(c4ncc(C(=O)NC5C(C)(C)C(Oc6ccc(C#N)c(Cl)c6)C5(C)C)cn4)CC3)CC2)C1 (stereo not shown) [Compound 101, 1-[1-[2-[1-[5-[[3-(3-chloro-4-cyano-phenoxy)-2,2,4,4-tetramethyl-cyclobutyl]carbamoyl]pyrimidin-2-yl]-4-piperidyl]acetyl]-4-piperidyl]-3-[7-(difluoromethyl)-6-(1-methylpyrazol-4-yl)-3,4-dihydro-2H-quinolin-1-yl]-N-methyl-6,7-dihydro-4H-pyrazolo[4,3-c]pyridine-5-carboxamide]	≤ 0.1	< 1	> 10
CNC(=O)N1CCc2c(c(N3CCCc4cc(-c5cnn(C)c5)c(C(F)F)cc43)nn2C2CCN(C(=O)COCCN3CCN(c4ncc(C(=O)NC5C(C)(C)C(Oc6ccc(C#N)c(Cl)c6)C5(C)C)cn4)CC3)CC2)C1 (stereo not shown) [Compound 106, 1-[1-[2-[2-[4-[5-[[3-(3-chloro-4-cyano-phenoxy)-2,2,4,4-tetramethyl-cyclobutyl]carbamoyl]pyrimidin-2-yl]piperazin-1-yl]ethoxy]acetyl]-4-piperidyl]-3-[7-(difluoromethyl)-6-(1-methylpyrazol-4-yl)-3,4-dihydro-2H-quinolin-1-yl]-N-methyl-6,7-dihydro-4H-pyrazolo[4,3-c]pyridine-5-carboxamide]	≤ 0.1	< 1	> 10
